Experimental findings from US20150342933A1, “APORPHINE ALKALOID DERIVATIVE FOR […]-DEPENDENT PROTEIN KINASE” (ZIH YUAN TANG Biotechnology Co., Ltd, priority 2014, published 2015) are described below.

The test deals with AMPK. In words: AMPK phosphorylation in C2C12 myocytes (Western blot, Phospho-AMPKα Thr172). In kind it is cell-based, mouse. On the procedure: C2C12 skeletal myoblast cell line was purchased from the Food Industry Research and Development Institute (Hsinchu, Taiwan). The C2C12 cell line was a cell line obtained from culturing the leg skeletal muscle of adult C3H mice in a cell incubator under 95% […], 5% CO2, and 37° C. The cells were cultured in a DMEM medium (Gibco/Invitrogen, Carlsbad, Calif.) containing 4.5 mg/mL glucose, 10% fetal bovine serum (FBS; Gibco/Invitrogen, Carlsbad, Calif.), and an antibiotic solution (with final concentrations of penicillin=100 IU/mL and streptomycin=100 μg/mL). When the C2C12 myoblast cells have proliferated to cover seven-tenths of the area in the petri dish, the fetal bovine serum was replaced by 2% horse serum (Gibco/Invitrogen, Carlsbad, Calif.) so as to induce the C2C12 myoblast cells to become the multi-nuclei myocytes. The C2C12 myoblast cells differentiated into myocytes in 4 days, and the culture medium of the cells was replaced with no-serum DMEM 24 hours before the experiments so as to reduce metabolism of the cells.
The C2C12 myocytes were treated respectively with 1 μM, 3 μM and 10 μM 1,10-dihydroxyaporphine hydrobromide for 5 and 15 minutes. Then the C2C12 myocytes were rinsed with PBS buffer solution, and RIPA buffer solution containing protease inhibitors (20 mM Tris-HCl (pH 7.4), 100 mM NaCl, 1 mM EDTA, 1 mM EGTA, 0.1% SDS, 0.5% sodium deoxycholate, 1% NP-40, and 100× protease inhibitor cocktail) was added into the cells. The cells were collected and centrifuged on ice. Then, the concentrations of the supernatant samples were adjusted to be the same.
The supernatant samples were put through vertical electrophoresis isolation with 8% SDS-PAGE, and the isolated proteins were transferred onto a PVDF blotting membrane. After blotting was completed, the PVDF blotting membrane was removed and blocked for 1 hour under room temperature with a blocking buffer of TBST (Tris-buffered saline with Tween-20) with 5% non-fat milk. Then, the PVDF blotting membrane was placed into a 5% BSA and TBST solution containing the primary monoclonal antibodies Phospho-AMPKα (Thr172) (Cell Signaling) (1:1000) and AMPKα […] (Cell Signaling) (1:1000), respectively, and the primary immunoblotting reaction was performed under 4° C. Then, the PVDF blotting membrane was rinsed 3 times with TBST, and a TBST solution containing the secondary antibody goat anti-rabbit IgG (Perkin Elmer) (1:10000) was added to perform the secondary reaction for one hour under room temperature. Finally, the membrane was rinsed 3 times with TBST before ECL (enhanced chemiluminescence) was added to present color.
(In western blotting, separated proteins are transferred to a membrane and probed.)

For the compound `Br.CN1CCc2ccc(O)c3c2C1Cc1ccc(O)cc1-3` (stereo not shown) [1,10-dihydroxyaporphine hydrobromide], the “AMPK phosphorylation, times of that in the control cells” value was found to be 1.33 times (3 μM, 5 minutes); 1.21 times (3 μM, 15 minutes); 1.23 times (10 μM, 5 minutes); 1.65 times (10 μM, 15 minutes).
